Laboratory results as given in patent publication US20180037574A1, “COMPOUND, COMPOSITION, ORGANIC ELECTROLUMINESCENCE ELEMENT, AND ELECTRONIC DEVICE” (IDEMITSU KOSAN CO., LTD., priority 2015, published 2018).

Test: Dissolution of host and dopant materials in toluene solution (visual check)
Assay type: physicochemical
Settings: 1.6-mass % toluene solution, host:dopant D-1 90:10 by mass, dissolved using ultrasonic waves, visually checked
Procedure: The compound H-1 obtained in Synthesis Example 1 was used as a host material and the compound D-1 was used as a dopant material at a mixture ratio by mass of the compound H-1:the compound D-1 being 90:10 to prepare a 1.6-mass % toluene solution. The materials were dissolved using ultrasonic waves. […] The toluene solution was coated on the base substrate by spin coating to form a 50-nm thick film. After the film formation, an unnecessary portion was removed with toluene from the film. Subsequently, the film was heated and dried on a hot plate heated at 150 degrees C. to manufacture a coated laminate substrate on which an emitting layer was formed. It should be noted that all the operations for forming the emitting layer were conducted in a nitrogen-atmosphere glove box.
In Comparative 1, manufacturing of an organic EL device was attempted in the same manner as in Example 1 except that a comparative compound H-a was used in place of the compound H-1 as the host material. However, the materials were not dissolved in the toluene solution but whitened to be unable to prepare a solution, so that an organic EL device was not manufactured.

solubility in toluene solution: not dissolved
Compound: c1ccc(-c2ccc(-c3nc(-n4c5ccccc5c5cc(-n6c7ccccc7c7ccccc76)ccc54)nc(-n4c5ccccc5c5cc(-n6c7ccccc7c7ccccc76)ccc54)n3)cc2)cc1 [H-a]
